In PubChem BioAssay AID1963431 (Molecular Pharmacology Branch, DTP, NCI, 2024):

Tested on: Rh18 complex spheroid viability, percent test/control
Assay: Anticancer human tumor Rh18 cell line growth inhibition [Asc];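 also: spheroids exposed to compound for 7 days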;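 as to viability, T/C: 100% = DMSO vehicle control wells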
Settings: for IC50: curve of first compound; for viability, T/C: stronger effect = lower value
Method: Multicellular complex tumor spheroid response to apoptosis pathway targeting inhibitors Alrizomadlin, Pelcitoclax, and Dasminapant in combination with a variety of drugs and investigational agents in selected tumor cell lines
The MDM2 inhibitor alrizomadlin, the Bcl-2/Bcl-xL inhibitor pelcitoclax, and the IAPs inhibitor dasminapant were evaluated both individually and in combination with standard of care and investigational anticancer small molecules within a complex spheroid model of solid tumors. . Complex spheroids include a stromal component modeled by human endothelial cells (HUVEC) and fibroblasts modeled by human mesenchymal stem cells (MSCs). The concentration ranges selected for each drug and investigational agent were based upon clinically achievable concentrations if the clinical Cmax of the agent was known.
Compounds. The drugs and investigational agents: alrizomadlin (APG-115; NSC831270), pelcitoclax (APG-1252; NSC835773), dasminapant (APG-1387;NSC834197), TAK-243 (NSC785004), copanlisib (NSC809693), olaparib (NSC753686), talazoparib (NSC767125), cobimetinib (NSC 768068), eltanexor (KPT-8602, NSC 794443), abemaciclib (NSC 768073), sotorasib (NSC818433), adagrasib (NSC 831453), MRTX-1133 (NSC 836407), Iadademestat (ORY1001, NSC 806812), and RMC-4630 (NSC839698), were obtained from the NCI Developmental Therapeutics Program Chemical Repository. The FDA-approved anticancer drug set is available from the Developmental Therapeutics Program at https://dtp.cancer.gov/organization/dscb/obtaining/available plates.htm. […] The stock solutions were prepared in dimethyl sulfoxide (DMSO, Sigma-Aldrich, St. Louis, MO, cat. D2650) at 800-fold the tested concentration and stored at -70 degrees C prior to their use. All drugs and investigational agents were tested over a range starting from a high concentration at or near the clinical Cmax and decreasing in half-log increments. If the clinical Cmax for an agent had not been determined, the highest concentration tested was 10 microM.
The patient-derived cancer (PDC) cell lines include five colon adenocarcinomas: 186277-243-T-J2-PDC, 616215-338-R-J1-PDC, 439559-082-T-J2-PDC, 463943-066-T-J2-PDC, and 519858-162-T-J1-PDC; three pancreatic carcinomas: 323965-272-R-J2-PDC, 521955-158-R6-J3-PDC, and 521955-158-R2-J5-PDC; two uterine sarcomas: 327498-152-R-J2-PDC and 993429-296-R-J1-PDC; two rhabdomyosarcomas: 755483-174-R-J1-PDC and 772245-204-R-J1-PDC; two soft tissue sarcomas: 126254-015-R-J1-PDC and 494315-158-R-J1-PDC; two malignant fibrous histiocytomas: 317291-083-R-J1-PDC and 596521-263-R-J1-PDC; two breast carcinomas: 171881-019-R-J1-PDC and 885512-296-R-J2-PDC; and one ovarian carcinoma: 6556581-035-R-J-PDC were obtained from the NCI PDMR, (https://pdmr.cancer.gov). The established cell lines HSSY-2 synovial sarcoma (RRID:CVCL 8719), SYO-1 synovial sarcoma (RRID:CVCL_7146), MPNST malignant peripheral neural sheath tumor were obtained from the Sloan Kettering Institute. The following established cell lines were purchased from the American Type Culture Collection (ATCC, Manassas, VA), Sor the received from the NCI repository:, PANC-1 pancreatic carcinoma (CRL-1469, RRID:CVCL_0480), OVCAR-5 ovarian carcinoma (RRID:CVCL_1628), OVCAR-8 ovarian carcinoma (RRID:CVCL_1629), , MCF-7 breast carcinoma (CRL-12584, RRID:CVCL_0031), MDA-MB-231 breast carcinoma (CRL-12532, RRID:CVCL_0062), NCI-H1876 small cell lung carcinoma (CRL-5902, RRID:CVCL_1503), NCI-H510A small cell lung carcinoma (HTB-184, RRID:CVCL_1565), NCI-H1417 (CRL-5869, RRID:CVCL_1469), and NCI-H196 small cell lung carcinoma (CRL-5823, RRID:CVCL_1509). Dr. Peter Houghton (Greehey Children's Cancer Research Institute, University of Texas Health Science Center, San Antonio, TX) provided Rh-18 rhabdomyosarcoma (RRID:CVCL_1659). Pooled donor human umbilical vein endothelial cells (HUVEC, Lonza, cat. CC-2519) and human mesenchymal stem cells (hMSC, Lonza, cat. PT-2501) were purchased from Lonza (Walkersville, MD).
Cell Culture. […]

[1] = second compound 0.1 µM, first compound 0.0316 µM
[2] = second compound 0.1 µM, first compound 0.1 µM
[3] = second compound 0.316 µM, first compound 0.0316 µM
[4] = second compound 0.316 µM, first compound 0.1 µM
[5] = second compound 1 µM, first compound 0.0316 µM
[6] = second compound 1 µM, first compound 0.1 µM

## C=CC(=O)N1CCN(c2nc(=O)n(-c3c(C)ccnc3C(C)C)c3nc(-c4c(O)cccc4F)c(F)cc23)C(C)C1 (stereo not given) + CNC(C)C(=O)NC1CN(S(=O)(=O)c2cccc(S(=O)(=O)N3CCC4CCC(C(=O)NC(c5ccccc5)c5ccccc5)N4C(=O)C(NC(=O)C(C)NC)C3)c2)CCC2CCC(C(=O)NC(c3ccccc3)c3ccccc3)N2C1=O
Second compound 0.01 µM
  IC50: > 10 µM
Second compound 0.0316 µM
  IC50: 4.45 µM
Second compound 0.1 µM
  IC50: 0.061 µM
Second compound 0.316 µM
  IC50: < 0.0316 µM
Second compound 1 µM
  IC50: < 0.0316 µM
Second compound 0.01 µM, first compound 0.0316 µM
  viability, T/C: 61.6%
Second compound 0.01 µM, first compound 0.1 µM
  viability, T/C: 63.6%
Second compound 0.01 µM, first compound 0.316 µM
  viability, T/C: 56%
Second compound 0.01 µM, first compound 1 µM
  viability, T/C: 51.8%
Second compound 0.01 µM, first compound 3.16 µM
  viability, T/C: 59.8%
Second compound 0.01 µM, first compound 10 µM
  viability, T/C: 61.1%
Second compound 0.0316 µM, first compound 0.0316 µM
  viability, T/C: 52.4%
Second compound 0.0316 µM, first compound 0.1 µM
  viability, T/C: 54.8%
Second compound 0.0316 µM, first compound 0.316 µM
  viability, T/C: 61.9%
Second compound 0.0316 µM, first compound 1 µM
  viability, T/C: 46.2%
Second compound 0.0316 µM, first compound 3.16 µM
  viability, T/C: 60.7%
Second compound 0.0316 µM, first compound 10 µM
  viability, T/C: 37.8%
[1]
  viability, T/C: 49.4%
[2]
  viability, T/C: 52%
Second compound 0.1 µM, first compound 0.316 µM
  viability, T/C: 48.6%
Second compound 0.1 µM, first compound 1 µM
  viability, T/C: 43.1%
Second compound 0.1 µM, first compound 3.16 µM
  viability, T/C: 46.4%
Second compound 0.1 µM, first compound 10 µM
  viability, T/C: 43.6%
[3]
  viability, T/C: 43.1%
[4]
  viability, T/C: 41.3%
Second compound 0.316 µM, first compound 0.316 µM
  viability, T/C: 41.2%
Second compound 0.316 µM, first compound 1 µM
  viability, T/C: 43.9%
Second compound 0.316 µM, first compound 3.16 µM
  viability, T/C: 52.5%
Second compound 0.316 µM, first compound 10 µM
  viability, T/C: 45.4%
[5]
  viability, T/C: 44.1%
[6]
  viability, T/C: 45%
Second compound 1 µM, first compound 0.316 µM
  viability, T/C: 46.4%
Second compound 1 µM, first compound 1 µM
  viability, T/C: 40%
Second compound 1 µM, first compound 3.16 µM
  viability, T/C: 35.4%
Second compound 1 µM, first compound 10 µM
  viability, T/C: 35.9%

## Cn1ncnc1[C@H]1c2n[nH]c(=O)c3cc(F)cc(c23)N[C@@H]1c1ccc(F)cc1 + Cc1c(S(C)(=O)=O)c(-c2cc(F)cc(N3CCN(c4ccc(NS(=O)(=O)c5ccc(NC(CCN6CCC(C(=O)OCCCP(=O)(O)O)CC6)CSc6ccccc6)c(S(=O)(=O)C(F)(F)F)c5)cc4)CC3)c2)c(-c2ccc(Cl)cc2)n1C(C)C
Second compound 0.1 µM
  IC50: < 0.000316 µM
Second compound 0.316 µM
  IC50: < 0.000316 µM
Second compound 1 µM
  IC50: < 0.000316 µM
Second compound 3.16 µM
  IC50: < 0.000316 µM
Second compound 10 µM
  IC50: < 0.000316 µM
Second compound 0.1 µM, first compound 0.000316 µM
  viability, T/C: 17.4%
Second compound 0.1 µM, first compound 0.001 µM
  viability, T/C: 14.9%
Second compound 0.1 µM, first compound 0.00316 µM
  viability, T/C: 17%
Second compound 0.1 µM, first compound 0.01 µM
  viability, T/C: 15.3%
[1]
  viability, T/C: 13.6%
[2]
  viability, T/C: 15.4%
Second compound 0.316 µM, first compound 0.000316 µM
  viability, T/C: 10.9%
Second compound 0.316 µM, first compound 0.001 µM
  viability, T/C: 11.7%
Second compound 0.316 µM, first compound 0.00316 µM
  viability, T/C: 10.6%
Second compound 0.316 µM, first compound 0.01 µM
  viability, T/C: 11.8%
[3]
  viability, T/C: 11.4%
[4]
  viability, T/C: 12.6%
Second compound 1 µM, first compound 0.000316 µM
  viability, T/C: 10.5%
Second compound 1 µM, first compound 0.001 µM
  viability, T/C: 9.96%
Second compound 1 µM, first compound 0.00316 µM
  viability, T/C: 7.96%
Second compound 1 µM, first compound 0.01 µM
  viability, T/C: 6.9%
[5]
  viability, T/C: 8.38%
[6]
  viability, T/C: 9.11%
Second compound 3.16 µM, first compound 0.000316 µM
  viability, T/C: 5.76%
Second compound 3.16 µM, first compound 0.001 µM
  viability, T/C: 7.46%
Second compound 3.16 µM, first compound 0.00316 µM
  viability, T/C: 5.55%
Second compound 3.16 µM, first compound 0.01 µM
  viability, T/C: 6.19%
Second compound 3.16 µM, first compound 0.0316 µM
  viability, T/C: 6.82%
Second compound 3.16 µM, first compound 0.1 µM
  viability, T/C: 6.64%
Second compound 10 µM, first compound 0.000316 µM
  viability, T/C: 6.76%
Second compound 10 µM, first compound 0.001 µM
  viability, T/C: 6.12%
Second compound 10 µM, first compound 0.00316 µM
  viability, T/C: 6.36%
Second compound 10 µM, first compound 0.01 µM
  viability, T/C: 5.83%
Second compound 10 µM, first compound 0.0316 µM
  viability, T/C: 6.8%
Second compound 10 µM, first compound 0.1 µM
  viability, T/C: 9.69%
